In publication PMC3401096 (Molecular Biosystems, 2009):
Where a name gives a salt, the structure may show the parent alone. Read-outs that look alike come from different tables or passages of the source.

Tests used:
JMJD2E [1] = molecular target: T1, JMJD2E (Homo sapiens, UniProt B2RXH2); assay: miniaturized 1,536-well FDH-coupled JMJD2E qHTS assay; type: biochemical
T1 sequence (B2RXH2 1-337): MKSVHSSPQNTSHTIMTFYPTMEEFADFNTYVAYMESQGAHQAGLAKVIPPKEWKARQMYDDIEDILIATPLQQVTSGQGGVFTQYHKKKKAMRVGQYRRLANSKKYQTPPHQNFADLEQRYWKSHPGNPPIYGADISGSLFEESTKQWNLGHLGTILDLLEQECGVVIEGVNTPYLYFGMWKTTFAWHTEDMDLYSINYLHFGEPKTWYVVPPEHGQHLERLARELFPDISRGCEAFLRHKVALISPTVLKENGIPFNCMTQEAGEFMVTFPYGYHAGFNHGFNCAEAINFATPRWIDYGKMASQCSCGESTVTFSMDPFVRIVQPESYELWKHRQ

JMJD2E [2] = molecular target: T1, JMJD2E; assay: kinetic analysis of the mode of inhibition of JMJD2E with respect to 2OG; type: biochemical
JMJD2E [3] = molecular target: T1, JMJD2E; assay: biochemical
JMJD2E [4] = molecular target: T1, JMJD2E

Compound	IC50 (JMJD2E [4])	αKi (JMJD2E [2]; uncompetitive with respect to 2OG)	IC50 (JMJD2E [1])	mode of inhibition of JMJD2E with respect to 2OG (JMJD2E [2])	IC50 (JMJD2E [3])
O=c1cc(-c2ccccc2)oc2cc(O)c(O)c(O)c12 [Baicalein]	–	–	4 µM	noncompetitive	4.5 µM
Oc1ccc(C2CNCCc3c2cc(O)c(O)c3Cl)cc1 (stereo not shown) [Fenoldopam bromide]	–	–	7.9 µM	–	10.1 µM
NCCc1ccc(O)c(O)c1 [Dopamine hydrochloride]	–	–	7.1 µM	–	2.2 µM
CC1(C)CCC2=C(O1)c1ccccc1C(=O)C2=O [beta-Lapachone]	–	–	3.6 µM	–	8.4 µM
Oc1cc2c(cc1O)[C@@H]1c3ccc(O)c(O)c3OC[C@]1(O)C2 [hematoxylin]	–	–	2 µM	–	3.4 µM
NCCc1cc(O)c(O)cc1O [Oxidopamine Hydrochloride]	–	–	4 µM	–	12.2 µM
Oc1cc(O)c2c(c1)O[C@H](c1cc(O)c(O)c(O)c1)[C@H](O)C2 [Epigallocatechin]	–	–	5 µM	–	–
O=C(O[C@@H]1Cc2c(O)cc(O)cc2O[C@@H]1c1cc(O)c(O)c(O)c1)c1cc(O)c(O)c(O)c1 [Epigallocatechin gallate]	3 µM	–	–	–	–

Further lines, with some results ahead:

IC50 (JMJD2E [4])	αKi (JMJD2E [2]; uncompetitive with respect to 2OG)	Compound	IC50 (JMJD2E [1])	mode of inhibition of JMJD2E with respect to 2OG (JMJD2E [2])	IC50 (JMJD2E [3])
6.1 µM	–	C[C@](N)(Cc1ccc(O)c(O)c1)C(=O)O [L-Methyldopa]	–	–	–
7.5 µM	1.98 ± 0.17	S(−)-Carbidopa	–	uncompetitive	–
